According to US7288542B2, “Non-nucleoside reverse transcriptase inhibitors” (Roche Palo Alto LLC, priority 2004, dated 2007):
Where a name gives a salt, the structure may show the parent alone.

Key:
[1] = Oral pharmacokinetics in rats: plasma concentration of active nnRTI after gavage of prodrug or parent (Example 8); assay type: in vivo; conditions: parent compound dosed p.o. at 50 mg/kg; for Cmax: rat, plasma, po, read-out: Cmax (peak concentration of active nnRTI) (converted)
Protocol: dose equivalent to (0.127 mmol) was administered orally by gavage. A blood sample (0.3 mL) was collected from the […] at 0.5, 1, 2, 3, 4, 6 and 8 hours after via the jugular cannula. A sample of at least 0.3 mL of blood was withdrawn from the untreated animals 3 h after dosing. After 24 h from dosing, as much blood as possible was collected from all treated and control animals. Potassium oxalate/NaF was added to the samples which were stored on ice during sampling procedure. The samples were spun in a refrigerated centrifuge at […] as soon as possible and the plasma samples were stored −20° C. immediately after centrifugation amd later transferred to a −80° C. freezer until analysis. The concentration of test compound was determined by hplc.

Row | melting point | AUC (total amount of active nnRTI absorbed) [1] | Cmax [1] | SMILES
1 | 75 to 90 °C | – | – | Cc1cc(Cc2ccc(Cl)c(Oc3cc(C#N)cc(C#N)c3)c2F)nn(COC(=O)OCCN(C)C)c1=O (as salt: HCl) [Compound I-18, Carbonic acid 3-[4-chloro-3-(3,5-dicyano-phenoxy)-2-fluoro-benzyl]-5-methyl-6-oxo-6H-pyridazin-1-ylmethyl ester 2-dimethylamino-ethyl ester]
2 | 176.7 to 178.3 °C | – | – | Cc1cc(Cc2ccc(Cl)c(Oc3cc(C#N)cc(C#N)c3)c2F)nn(COC(=O)[C@@H](N)C(C)C)c1=O (as salt: hydrochloride) [Compound I-5, (S)-1-{3-[4-Chloro-3-(3,5-dicyano-phenoxy)-2-fluoro-benzyl]-5-methyl-6-oxo-6H-pyridazin-1-ylmethoxycarbonyl}-2-methyl-propyl-ammonium; chloride]
3 | 193.7 to 197.2 °C | – | – | Cc1cc(Cc2ccc(Cl)c(Oc3cc(C#N)cc(C#N)c3)c2F)nn(COP(=O)(O)O)c1=O (as salt: sodium) (hydrate or solvate) [Compound I-23, Phosphoric acid mono-{3-[4-chloro-3-(3,5-dicyano-phenoxy)-2-fluoro-benzyl]-5-methyl-6-oxo-6H-pyridazin-1-ylmethyl}ester disodium salt]
4 | – | 8.1 µg·h/mL | 0.6 µg/mL | Cc1cc(Cc2ccc(Cl)c(Oc3cc(C#N)cc(C#N)c3)c2F)n[nH]c1=O [Compound 10, 5-[6-chloro-2-fluoro-3-(5-methyl-6-oxo-1,6-dihydro-pyridazin-3-ylmethyl)-phenoxy]-isophthalonitrile]
5 | – | 30.0 µg·h/mL | 2.3 µg/mL | Cc1cc(Cc2ccc(Cl)c(Oc3cc(Cl)cc(C#N)c3)c2F)n[nH]c1=O [Compound 11, 3-chloro-5-[6-chloro-2-fluoro-3-(5-methyl-6-oxo-1,6-dihydro-pyridazin-3-ylmethyl)-phenoxy]-benzonitrile]
6 | 172 to 179 °C | – | – | Cc1cc(Cc2ccc(Cl)c(Oc3cc(C#N)cc(C#N)c3)c2F)nn(CO)c1=O [Compound I-1, 5-[6-Chloro-2-fluoro-3-(1-hydroxymethyl-5-methyl-6-oxo-1,6-dihydro-pyridazin-3-ylmethyl)-phenoxyl]-isophthalonitrile]
7 | 167 to 171.5 °C | – | – | Cc1cc(Cc2ccc(Cl)c(Oc3cc(C#N)cc(C#N)c3)c2F)nn(COC(=O)CCC(=O)O)c1=O [Compound I-8, Succinic acid mono-{3-[4-chloro-3-(3,5-dicyano-phenoxy)-2-fluoro-benzyl]-5-methyl-6-oxo-6H-pyridazin-1-ylmethyl}ester]
8 | 113.9 to 117.3 °C | – | – | Cc1cc(Cc2ccc(Cl)c(Oc3cc(C#N)cc(C(F)F)c3)c2F)nn(CO)c1=O [Compound I-27]
9 | 154.3 to 156.9 °C | – | – | Cc1cc(Cc2ccc(Cl)c(Oc3cc(C#N)cc(C(F)F)c3)c2F)nn(COC(=O)CCC(=O)O)c1=O [Compound I-28, Succinic acid mono-{3-[4-chloro-3-(3-cyano-5-difluoromethyl-phenoxy)-2-fluoro-benzyl]-5-methyl-6-oxo-6H-pyridazin-1-ylmethyl}ester]
10 | 100.5 to 103.8 °C | – | – | N#Cc1cc(F)cc(Oc2c(Cl)ccc(Cc3ccc(=O)n(CO)n3)c2F)c1 [Compound I-29]
11 | 133.9 to 137 °C | – | – | N#Cc1cc(F)cc(Oc2c(Cl)ccc(Cc3ccc(=O)n(COC(=O)CCC(=O)O)n3)c2F)c1 [Compound I-30, Succinic acid mono-{3-[4-chloro-3-(3-cyano-5-fluoro-phenoxy)-2-fluoro-benzyl]-6-oxo-6H-pyridazin-1-ylmethyl}ester]
